Laboratory results from patent US8106055B2, “Substituted amide compounds” (Gruenenthal GmbH, priority 2007, dated 2012).

Biological target: T1, bradykinin 1 receptor (B1R) of the rat (Rattus norvegicus, UniProt P97583)
T1 construct: expressed in transfected cells; host or cells: CHO K1 cells
T1 sequence (P97583 1-337): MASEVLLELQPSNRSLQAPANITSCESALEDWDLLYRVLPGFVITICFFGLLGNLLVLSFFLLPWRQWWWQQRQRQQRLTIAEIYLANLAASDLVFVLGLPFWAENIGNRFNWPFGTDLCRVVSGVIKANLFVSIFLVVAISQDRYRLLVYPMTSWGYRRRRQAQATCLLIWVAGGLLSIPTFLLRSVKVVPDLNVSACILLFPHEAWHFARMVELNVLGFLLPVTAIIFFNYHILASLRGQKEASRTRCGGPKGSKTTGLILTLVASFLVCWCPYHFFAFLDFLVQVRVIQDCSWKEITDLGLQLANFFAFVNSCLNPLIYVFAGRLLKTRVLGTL
Assay: Functional investigation on the rat bradykinin 1 receptor (B1R), Ca2+ FLIPR assay in CHO K1 rB1R cells
Assay type: cell-based
Settings: B1R antagonism rat; test substance 10 μM; Ca2+ FLIPR, CHO K1 rB1R cells
Method in brief: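 Stably transfected CHO K1 cells loaded with Fluo-4; FLIPR Ca2+ fluorescence peak (ex 488/em 540 nm). Compound added first (agonism vs Lys-Des-Arg9-bradykinin ≥50 nM human, Des-Arg9-bradykinin 10 μM rat), then after 10-20 min agonist at EC80; antagonism as % inhibition, IC50 from concentration series, n=2-3, N≥2.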

Point of comparison: COc1ccc(S(=O)(=O)N2CCCCC2COCC(=O)NC2CCC(C(c3cccs3)N(C)C)CC2)cc1OC (stereo not shown) [Example 261], “B1R Ant. r [10 μM] % Inhibition” value −3%. Against it:
- COc1cc(C)c(S(=O)(=O)N(C)CCOCC(=O)NCC2CCC(C(c3cccc(F)c3)N(C)C)CC2)c(C)c1 (stereo not shown) [Example 248] — higher, 102%
- CN(C)C(c1ccc(F)cc1)C1CCC(CNC(=O)COCCN(C)S(=O)(=O)c2ccc(Cl)cc2Cl)CC1 (stereo not shown) [Example 249] — higher, 55%
- COc1ccc(S(=O)(=O)N(C)CCOCC(=O)NC2CCC(C(c3cccc(F)c3)N(C)C)CC2)cc1 (stereo not shown) [Example 250] — higher, 38%
- COc1cc(C)c(S(=O)(=O)N2CCC(OCC(=O)NC3CCC(C(c4cccc(F)c4)N(C)C)CC3)C2)c(C)c1 (stereo not shown) [Example 251] — higher, 87%
- COc1cc(C)c(S(=O)(=O)N2CCC(OCC(=O)NCC3CCC(C(c4cccc(F)c4)N(C)C)CC3)C2)c(C)c1C (stereo not shown) [Example 252] — higher, 4%
- COc1cc(C)c(S(=O)(=O)N2CCC(OCC(=O)NCCC3CCC(C(c4cccc(F)c4)N(C)C)CC3)C2)c(C)c1C (stereo not shown) [Example 253] — higher, 18%
- COc1cc(C)c(S(=O)(=O)N(CCOCC(=O)NCCC2CCC(C(c3cccs3)N(C)C)CC2)Cc2ccccc2)c(C)c1C (stereo not shown) [Example 254] — higher, −1%
- COc1ccc(S(=O)(=O)N2CCCCC2COCC(=O)NC2CCC(C(c3cccc(F)c3)N(C)C)CC2)cc1 (stereo not shown) [Example 255] — higher, 47%
- CN(C)C(c1ccc(F)cc1)C1CCC(NC(=O)COC2CCCCC2N(C)S(=O)(=O)c2ccc(Cl)c(Cl)c2)CC1 (stereo not shown) [Example 256] — higher, 1%
- CN(C)C(c1cccc(F)c1)C1CCC(CNC(=O)COC2CCN(S(=O)(=O)c3ccc(Cl)cc3)C2)CC1 (stereo not shown) [Example 258] — higher, 12%
- CN(C)C(c1cccc(F)c1)C1CCC(CCNC(=O)COC2CCN(S(=O)(=O)c3ccc(Cl)cc3Cl)C2)CC1 (stereo not shown) [Example 259] — higher, 25%
- COc1ccc(S(=O)(=O)N2CCC(OCC(=O)NCC3CCC(C(c4ccc(Cl)cc4)N(C)C)CC3)C2)cc1OC (stereo not shown) [Example 260] — higher, 9%
- COc1ccc(S(=O)(=O)N2CCC(OCC(=O)NCCC3CCC(C(c4cccc(F)c4)N(C)C)CC3)C2)cc1OC (stereo not shown) [Example 262] — higher, 36%
- CN(C)C(c1ccc(Cl)cc1)C1CCC(CNC(=O)COCCN(C)S(=O)(=O)c2ccc(F)cc2)CC1 (stereo not shown) [Example 263] — higher, 32%
- Cc1cc(C)c(S(=O)(=O)N2CCC(OCC(=O)NCCC3CCC(C(c4cccc(F)c4)N(C)C)CC3)C2)c(C)c1 (stereo not shown) [Example 264] — higher, 59%
- COc1cc(C)c(S(=O)(=O)N2CCC(OCC(=O)NCC3CCC(C(c4cccc(F)c4)N(C)C)CC3)C2)c(C)c1 (stereo not shown) [Example 265] — higher, 97%
- CN(C)C(c1cccc(F)c1)C1CCC(NC(=O)COCC2CCCN(S(=O)(=O)c3ccccc3)C2)CC1 (stereo not shown) [Example 266] — higher, 24%
- CN(C)C(c1ccc(F)cc1)C1CCC(CNC(=O)COCC2CCCN2S(=O)(=O)c2ccc(Cl)c(Cl)c2)CC1 (stereo not shown) [Example 267] — lower, −13%
- COc1ccc(S(=O)(=O)N2CCCC2COCC(=O)NC2CCC(C(c3cccc(F)c3)N(C)C)CC2)cc1 (stereo not shown) [Example 268] — higher, 25%
- CN(C)C(c1ccc(Cl)cc1)C1CCC(CNC(=O)COC2CCCCC2N(C)S(=O)(=O)c2ccc(Cl)c(Cl)c2)CC1 (stereo not shown) [Example 269] — the same, −3%
- CN(C)C(c1cccc(F)c1)C1CCC(NC(=O)COC2CCN(S(=O)(=O)c3ccccc3)C2)CC1 (stereo not shown) [Example 271] — lower, −13%
- Cc1ccc(S(=O)(=O)N2CCC(OCC(=O)NCCC3CCC(C(c4cccs4)N(C)C)CC3)C2)cc1 (stereo not shown) [Example 272] — higher, 32%
- Cc1ccc(S(=O)(=O)N(C)CCOCC(=O)NCC2CCC(C(c3ccc(Cl)cc3)N(C)C)CC2)cc1 (stereo not shown) [Example 273] — higher, 37%
- CN(C)C(c1ccc(Cl)cc1)C1CCC(CCNC(=O)COCCN(C)S(=O)(=O)c2c(Cl)cccc2Cl)CC1 (stereo not shown) [Example 274] — higher, 61%
- CN(C)C(c1cccc(F)c1)C1CCC(CNC(=O)COC2CCN(S(=O)(=O)c3ccc(F)cc3)C2)CC1 (stereo not shown) [Example 275] — higher, 17%
- CN(C)C(c1cccs1)C1CCC(CNC(=O)COC2CCN(S(=O)(=O)c3ccccc3)CC2)CC1 (stereo not shown) [Example 276] — higher, 14%
- CN(C)C(c1cccc(F)c1)C1CCC(NC(=O)COC2CCCN(S(=O)(=O)c3ccccc3)C2)CC1 (stereo not shown) [Example 277] — higher, 4%
- CN(C)C(c1ccccc1)C1CCC(NC(=O)COCC2CCCN2S(=O)(=O)c2c(Cl)cc(Cl)cc2Cl)CC1 (stereo not shown) [Example 611, N-[4-(Dimethylaminophenylmethyl)-cyclohexyl]-2-[1-(2,4,6-trichlorobenzenesulfonyl)-pyrrolidin-2-ylmethoxy]-acetamide] — higher, 68%
- CN(C)C(c1ccccc1)C1CCC(NC(=O)COCC2CCCN2S(=O)(=O)c2c(Cl)cc(Cl)cc2Cl)CC1 (stereo not shown) [Example 612, N-[4-(Dimethylaminophenylmethyl)-cyclohexyl]-2-[1-(2,4,6-trichlorobenzenesulfonyl)-pyrrolidin-2-ylmethoxy]-acetamide] — higher, 64%
- CN(C)C(c1ccccc1)C1CCC(NC(=O)COCC2CCCN2S(=O)(=O)c2c(Cl)cc(Cl)cc2Cl)CC1 (stereo not shown) [Example 613, N-[4-(Dimethylaminophenylmethyl)-cyclohexyl]-2-[1-(2,4,6-trichlorobenzenesulfonyl)-pyrrolidin-2-ylmethoxy]-acetamide] — higher, 34%
- CN(C)C(c1ccccc1)C1CCC(CNC(=O)COCCN(C)S(=O)(=O)c2c(Cl)cc(Cl)cc2Cl)CC1 (stereo not shown) [Example 614, N-[4-(dimethylaminophenylmethyl)-cyclohexylmethyl]-2-{2-[(2,4,6-trichlorobenzenesulfonyl)-methylamino]-ethoxy}-acetamide] — higher, 29%

Same assay, conditions: CHO-K1, B1R antagonism rat; test substance 10 μM; Ca2+ FLIPR, CHO K1 rB1R cells; read-out: B1R Ant. r [10 μM] % Inhibition

Point of comparison: CN(C)C(c1ccccc1)C1CCC(NC(=O)COC2CCN(S(=O)(=O)c3c(Cl)cc(Cl)cc3Cl)C2)CC1 (stereo not shown) [Example 609, N-[4-(dimethylaminophenylmethyl)-cyclohexyl]-2-[1-(2,4,6-trichlorobenzenesulfonyl)-pyrrolidin-3-yloxy]-acetamide], inhibition at 10 µM 32%. Against it:
- O=C(COCCN(C1CC1)S(=O)(=O)c1c(Cl)cc(Cl)cc1Cl)NC1CCC(C(c2ccccc2)N2CCCC2)CC1 (stereo not shown) [Example 603, 2-{2-[cyclopropyl-(2,4,6-trichlorobenzenesulfonyl)-amino]-ethoxy}-N-[4-(phenylpyrrolidin-1-ylmethyl)-cyclohexyl]-acetamide] — higher, 85%
- CN(CCOCC(=O)NC1CCC(C(c2ccccc2)N2CCCC2)CC1)S(=O)(=O)c1c(Cl)cc(Cl)cc1Cl (stereo not shown) [Example 606, 2-{2-[methyl-(2,4,6-trichlorobenzenesulfonyl)-amino]-ethoxy}-N-[4-(phenylpyrrolidin-1-yl-methyl)-cyclohexyl]-acetamide] — higher, 37%
- CN(C)C(c1ccccc1)C1CCC(NC(=O)COC2CCCN(S(=O)(=O)c3c(Cl)cc(Cl)cc3Cl)C2)CC1 (stereo not shown) [Example 608, N-[4-(dimethylaminophenylmethyl)-cyclohexyl]-2-[1-(2,4,6-trichlorobenzenesulfonyl)-piperidin-3-yloxy]-acetamide] — higher, 34%
- CN(C)C(c1ccccc1)C1CCC(NC(=O)COCCN(C)S(=O)(=O)c2c(Cl)cc(Cl)cc2Cl)C1 (stereo not shown) [Example 615, N-[3-(dimethylaminophenylmethyl)-cyclopentyl]-2-{2-[(2,4,6-trichlorobenzenesulfonyl)-methylamino]-ethoxy}-acetamide] — lower, 26%
